From PubChem BioAssay (NCI)
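Tested at 5 concentrations; 48 h exposure; 96-well plates; endpoints linearly interpolated, else capped at highest concentration. The concentration for 50% growth inhibition is given as GI50. At the TGI there is no net growth.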

Tests used:
Assay in all cases: inhibition of tumour cell growth, NCI panel, 48 h
786-0 renal = tested on: 786-0 renal
A549 NSCLC = tested on: A549 NSCLC
HOP-62 NSCLC = tested on: HOP-62 NSCLC
NCI-H23 lung = tested on: NCI-H23 lung
OVCAR-5 ovarian = tested on: OVCAR-5 ovarian
OVCAR-8 ovarian = tested on: OVCAR-8 ovarian
SK-MEL-2 melanoma = tested on: SK-MEL-2 melanoma
UACC-257 melanoma = tested on: UACC-257 melanoma
DU-145 prostate = tested on: DU-145 prostate
MDA-MB-435 = tested on: MDA-MB-435

In the case of `O=C(NCCNCCO)c1cccc2ccc(-c3ccccc3)nc12`, the TGI (786-0 renal) is reported as 19.6 µM, the TGI (A549 NSCLC) is reported as 12.8 µM and the TGI (HOP-62 NSCLC) is reported as 22.8 µM. It also gave a TGI (NCI-H23 lung) of 15.3 µM, a TGI (OVCAR-5 ovarian) of 18.2 µM and a TGI (OVCAR-8 ovarian) of 19.5 µM. The TGI (SK-MEL-2 melanoma) was 20.2 µM and the TGI (UACC-257 melanoma) was 14.2 µM.
In the case of `O=C(O)CCNS(=O)(=O)c1ccc([N+](=O)[O-])cc1`, the TGI (786-0 renal) is reported as over 100 µM, the TGI (A549 NSCLC) is reported as over 100 µM and the TGI (NCI-H23 lung) is reported as over 100 µM. The TGI (OVCAR-5 ovarian) was over 100 µM, the TGI (OVCAR-8 ovarian) was over 100 µM and the TGI (SK-MEL-2 melanoma) was over 100 µM. It also gave a TGI (UACC-257 melanoma) of over 100 µM.
`N#CNc1nc(N)c(-c2ccc(Cl)cc2)c(C(=O)Nc2nccs2)n1` was tested, and the TGI (786-0 renal) was over 100 µM, the TGI (A549 NSCLC) was over 100 µM and the TGI (HOP-62 NSCLC) was over 100 µM. For the same compound, the TGI (NCI-H23 lung) was over 100 µM, the TGI (OVCAR-5 ovarian) was over 100 µM and the TGI (OVCAR-8 ovarian) was over 100 µM. It also gave a TGI (SK-MEL-2 melanoma) of over 100 µM and a TGI (UACC-257 melanoma) of over 100 µM.
For `COC(=O)C(C(=O)C(=O)Nc1ccc([N+](=O)[O-])cc1)c1nc2ccc([N+](=O)[O-])cc2[nH]c1=O` (configuration not stated), the TGI (786-0 renal) was over 100 µM, the TGI (A549 NSCLC) was over 100 µM and the TGI (HOP-62 NSCLC) was over 100 µM. For the same compound, the TGI (NCI-H23 lung) was over 100 µM, the TGI (OVCAR-5 ovarian) was over 100 µM and the TGI (OVCAR-8 ovarian) was over 100 µM. It also gave a TGI (SK-MEL-2 melanoma) of over 100 µM and a TGI (UACC-257 melanoma) of over 100 µM.
Work on `N#CCCNc1nonc1-c1nc2ccccc2n1CC(=O)c1ccc(NC(=O)[C@@H](N)CCCCN)cc1` yielded a GI50 (786-0 renal) of 0.0557 µM, a TGI (786-0 renal) of over 100 µM and a GI50 (A549 NSCLC) of 0.0463 µM. For the same compound, the TGI (A549 NSCLC) was over 100 µM, the GI50 (DU-145 prostate) was 0.0323 µM and the TGI (DU-145 prostate) was 0.0994 µM. It also gave a GI50 (HOP-62 NSCLC) of 0.0562 µM, a TGI (HOP-62 NSCLC) of over 100 µM and a TGI (MDA-MB-435) of 0.0742 µM. It also gave a GI50 (NCI-H23 lung) of 0.0483 µM, a GI50 (OVCAR-5 ovarian) of 0.0644 µM and a TGI (OVCAR-5 ovarian) of over 100 µM. For the same compound, the GI50 (OVCAR-8 ovarian) was 0.0554 µM, the TGI (OVCAR-8 ovarian) was over 100 µM and the GI50 (UACC-257 melanoma) was over 100 µM. The TGI (UACC-257 melanoma) was over 100 µM.
Work on `C[n+]1c2ccccc2nc2c(N)cc(N)cc21` yielded a GI50 (786-0 renal) of 5.43 µM, a TGI (786-0 renal) of over 100 µM and a GI50 (A549 NSCLC) of 14.1 µM. It also gave a TGI (A549 NSCLC) of over 100 µM, a GI50 (DU-145 prostate) of 16 µM and a TGI (DU-145 prostate) of over 100 µM. It also gave a GI50 (HOP-62 NSCLC) of 3.48 µM, a TGI (HOP-62 NSCLC) of 38.1 µM and a GI50 (MDA-MB-435) of 15.9 µM. It also gave a TGI (MDA-MB-435) of 41.5 µM, a GI50 (NCI-H23 lung) of 5.13 µM and a TGI (NCI-H23 lung) of 26.6 µM. It also gave a GI50 (OVCAR-5 ovarian) of over 100 µM and a TGI (OVCAR-5 ovarian) of over 100 µM.
`N#CCN1C(=O)c2cc([N+](=O)[O-])cc3cc([N+](=O)[O-])cc(c23)C1=O` was tested, and the TGI (786-0 renal) was 42.8 µM, the TGI (A549 NSCLC) was 43.8 µM and the TGI (HOP-62 NSCLC) was 41.9 µM. For the same compound, the TGI (NCI-H23 lung) was 32.9 µM, the TGI (OVCAR-5 ovarian) was 36.1 µM and the TGI (OVCAR-8 ovarian) was 56.4 µM. It also gave a TGI (SK-MEL-2 melanoma) of 14.1 µM and a TGI (UACC-257 melanoma) of 28.6 µM.
Work on `O=Cc1ccc2c(c1I)OCO2` yielded a TGI (786-0 renal) of over 100 µM, a TGI (A549 NSCLC) of over 100 µM and a TGI (HOP-62 NSCLC) of over 100 µM. The TGI (NCI-H23 lung) was over 100 µM, the TGI (OVCAR-5 ovarian) was over 100 µM and the TGI (OVCAR-8 ovarian) was over 100 µM. The TGI (SK-MEL-2 melanoma) was over 100 µM and the TGI (UACC-257 melanoma) was over 100 µM.
